Experimental data as given in patent US5658906A, “Cysteine protease and serine protease inhibitors” (Cephalon, Inc., priority 1996, dated 1997).

Assays:
Calpain I = molecular target: T1, Calpain I (Homo sapiens, UniProt P07384); experiment: Inhibition and rate of inactivation of calpain I (Succ-Leu-Tyr-MNA hydrolysis); assay type: biochemical; conditions: mean of three or more independent analyses, corrected for substrate, k2 = kapp(1+[S]/Km), read-out: k2 (second order rate constant of inactivation), A = Calpain I
T1 construct: Calpain I was purified from human red blood cells; from tissue; host or cells: human red blood cells (packed, outdated)
T1 sequence (P07384 1-714): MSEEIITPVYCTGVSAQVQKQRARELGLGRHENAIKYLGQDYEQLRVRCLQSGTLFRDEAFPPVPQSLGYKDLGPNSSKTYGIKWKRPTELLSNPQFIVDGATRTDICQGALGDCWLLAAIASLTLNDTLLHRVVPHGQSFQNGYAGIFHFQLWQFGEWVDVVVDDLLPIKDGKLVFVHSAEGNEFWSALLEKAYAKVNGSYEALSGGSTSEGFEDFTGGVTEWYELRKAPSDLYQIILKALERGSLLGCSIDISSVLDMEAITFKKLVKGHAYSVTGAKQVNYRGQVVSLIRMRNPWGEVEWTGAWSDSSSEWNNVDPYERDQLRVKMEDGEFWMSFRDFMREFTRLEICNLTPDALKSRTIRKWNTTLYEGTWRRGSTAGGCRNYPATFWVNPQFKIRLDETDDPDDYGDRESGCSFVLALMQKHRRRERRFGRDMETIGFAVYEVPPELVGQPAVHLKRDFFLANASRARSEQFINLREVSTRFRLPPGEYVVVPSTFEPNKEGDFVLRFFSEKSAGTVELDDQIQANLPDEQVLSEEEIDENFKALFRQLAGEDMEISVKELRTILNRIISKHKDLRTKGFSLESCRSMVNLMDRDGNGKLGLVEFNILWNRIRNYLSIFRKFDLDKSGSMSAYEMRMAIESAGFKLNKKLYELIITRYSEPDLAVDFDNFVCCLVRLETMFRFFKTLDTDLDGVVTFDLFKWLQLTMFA
T1 sequence (P04632 1-268 partner): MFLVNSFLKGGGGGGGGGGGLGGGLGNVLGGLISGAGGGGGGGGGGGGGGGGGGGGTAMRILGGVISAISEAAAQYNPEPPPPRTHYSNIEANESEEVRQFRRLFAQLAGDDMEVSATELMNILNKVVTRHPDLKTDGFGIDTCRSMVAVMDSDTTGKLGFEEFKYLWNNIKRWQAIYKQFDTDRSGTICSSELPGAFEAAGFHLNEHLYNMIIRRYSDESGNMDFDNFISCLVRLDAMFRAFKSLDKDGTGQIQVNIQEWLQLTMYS
Procedure: To evaluate inhibitory activity of our compounds, stocks (40 times concentrated) of each compound to be tested were prepared in 100% anhydrous dimethyl sulfoxide (DMSO) and 5 μl of each inhibitor preparation was aliquoted into each of three wells of a 96 well plate. Calpain I was purified from human red blood cells using a modification of the method described by Lee, W. J. et al. (Biochem. Internatl. (1990)22(1): 163-171). Briefly, 3 units of packed outdated red blood cells were washed 3× by repeated centrifugation at 500 rpm for 10 minutes through 900 mls of 0.9% NaCl. Cells were lysed in 20 mM Tris/1 mM EDTA/1 mM EGTA/5 mM mercaptoethanol (Buffer A) and centrifuged for 1 hour at 12,000 rpm in a GSA rotor using a Sorval centrifuge. The supernatant was collected and applied to a DEAE-sepharose FF column equilibrated in Buffer A+25 mM NaCl. After washing the column in Buffer A+25 mM NaCl, the bound protein was eluted at 117 ml/hr with a 25 mM to 150 mM NaCl linear gradient in Buffer A collecting 200, 10 mL fractions. Two μl of every fifth fraction was applied to nitrocelluose using a dot blot apparatus and calpain containing fractions identified by Western analysis. For detection of calpain, nitrocellulose sheets were first blocked in 5% Blotto (5% Carnation instant milk/10 mM Tris/[…]150 mM NaCl) for 30 minutes, followed by incubation for 1 hour in antibody directed against Calpain I (rabbit anti-human calpain I polyclonal sera, 1:1000 dilution in 5% Blotto). After three 5 minutes washes in 10 mM Tris/150 mM NaCl/0.05% Tween 20 the nitrocellulose was incubated for 1 hour in secondary alkaline phosphatase conjugated antibody (Biorad Cat#170-6518 1:2000 in 5% Blotto). After three 5 minutes washes in 10 mM Tris/150 mM NaCl/0.05% Tween 20 and 1 wash in 10 mM Tris/150 mM NaCl the nitrocellulose was incubated for up to 2 hours in a colorimetric substrate solution (Biorad Alkaline Phosphatase Substrate conjugate kit, cat#170-6432). The reaction was stopped by washing in water. After fractions containing calpain, and those in between, were pooled, solid ammonium sulfate was added to achieve a 30% solution and the mixture stirred for 1 hour at 4° C. Following collection of the precipitate by centrifugation for 1 hour at 4° C. at 12K rpm in a GSA rotor, the supernatant was collected and brought to 45% in ammonium sulfate. After stirring for 1 hour at 4° C., centrifugation was repeated. The supernatant was discarded and the precipitate resuspended in approximately 7 mls and dialyzed overnight at 4° C. against Buffer A+50 mM NaCl. The sample was then applied to a S300 gel filtration column preequilibrated in Buffer A+50 mM NaCl, washed and eluted at a flow rate of 20 ml/hr, collecting 200, 4 ml fractions. The peak of calpain was determined by assaying aliquots of every fifth fraction for enzyme activity monitored by the hydrolysis of a fluorogenic dipeptide substrate as described below. The peak fractions were pooled and the enzyme preparation used to test compounds for inhibitory activity. As an alternate to enzyme isolated from tissue sources, recombinant human calpain I has also been used to monitor compounds for inhibitory activity.
The foregoing enzyme preparation was diluted into assay buffer (i.e., 50 mM Tris, 50 mM NaCl, 1 mM EDTA, 1 mM EGTA, and 5 mM β-mercaptoethanol, pH 7.5 including 0.2 mM Succ-Leu-Tyr-MNA) and 175 μl aliquoted into the same wells containing the independent inhibitor stocks as well as to positive control wells containing 5 μl DMSO, but no compound. To start the reaction, 20 μl of 50 mM CaCl2 in assay buffer was added to all wells of the plate, excepting three, which were used as background signal baseline controls. Substrate hydrolysis was monitored every 5 minutes for a total of 30 minutes using Flouroskan II (ex=340 nm; em=430 nm). Substrate hydrolysis in the absence of inhibitor was linear for up to 15 minutes. […]

Cathepsin B = molecular target: T2, Cathepsin B (Homo sapiens, UniProt P07858); experiment: Inhibition and rate of inactivation of cathepsin B (Cbz-Phe-Arg-AMC hydrolysis); assay type: biochemical; conditions: pH 6.0, 0.1 mM substrate, read-out: k2 (second order rate constant of inactivation), C = Cathepsin B
T2 construct: purchased Calbiochem 219364
Procedure: Additionally, the order of reagents added to the plate was altered because both enzymes are constitutively active. Following inhibitor addition to the plates appropriate 2× concentrated stock dilutions of the enzyme preparations were made in assay buffer and 100 ul added to each well. The assay was initiated by addition of 100 ul of 2× concentrated stock dilution of substrate in assay buffer. Substrate hydrolysis was monitored using a Fluroskan II (ex=390 nm; em=460 nm).
Inhibition of enzyme activity was calculated as the percent decrease in the rate of substrate hydrolysis in the presence of inhibitor (.upsilon.i) relative to the rate in its absence (.upsilon.o). Comparison between .upsilon.o and .upsilon.i was made within the linear range for substrate hydrolysis. For screening, compounds were tested at 10 μM. Compounds having ≥50% inhibition at 10 μM were considered active. Apparent second order rate constants were determined from analysis of reaction progress curves under pseudo-first order conditions. Each determination represents the mean of three or more independent single cuvette analyses continually monitored via a Perkin-Elmer LS50B spectrofluorimeter. The rate of inhibition of hydrolysis was obtained by fitting the curve to the exponential equation (1):
y=Ae^-k.spsb.obs·t +B (1)
where y (Pt) is the product formed at time t. A and B are constants. A, the amplitude of the reaction, is given by [Po -P.varies. ] and B (=P.varies.) is the maximal product formed when the reaction is […]. This was corrected for the presence of equation (2): […]

| SMILES | kinact/KI (Calpain I) [M⁻¹ s⁻¹] | kinact/KI (Cathepsin B) [M⁻¹ s⁻¹] |
| --- | --- | --- |
| Cc1cc2c(cc1Cl)nnn2OCC(=O)[C@H](Cc1ccccc1)NC(=O)[C@H](CC(C)C)NC(=O)OCc1ccccc1 [Example 13, 1-[N-[N-Benzyloxycarbonyl-L-leucyl]-3S-4-phenyl-3-amino-2-oxobutyloxy]-5'-chloro-6'methylbenzotriazole] | 116000 | 29000 |
| CC(C)C[C@H](NC(=O)OCc1ccccc1)C(=O)N[C@@H](Cc1ccccc1)C(=O)COn1nnc2c(Cl)cccc21 [Example 14, 1-[N-[N-Benzyloxycarbonyl-L-leucyl]-3S-4-phenyl-3-amino-2-oxybutyloxy]-4'-chlorobenzotriazole] | 157000 | – |
| CC(C)C[C@H](NC(=O)OCc1ccccc1)C(=O)N[C@@H](Cc1ccccc1)C(=O)COn1nnc2ccc(-c3ccccc3)cc21 [Example 15, 1-[N-[N-Benzyloxycarbonyl-L-leucyl]-3S-4-phenyl-3-amino-2-oxybutyloxy]-6'-phenylbenzotriazole] | 77000 | 16000 |
| CC(C)C[C@H](NC(=O)OCc1ccccc1)C(=O)N[C@@H](Cc1ccccc1)C(=O)COn1nnc2cc(Cl)ccc21 [Example 17, 1-[N-[N-Benzyloxycarbonyl-L-leucyl]-3S-4-phenyl-3-amino-2-oxybutyloxy]-5'-chlorobenzotriazole] | 164000 | – |
| CC(C)C[C@H](NC(=O)OCc1ccccc1)C(=O)N[C@@H](Cc1ccccc1)C(=O)COn1nnc2cc(Cl)c(Cl)cc21 [Example 18, 1-[N-[N-Benzyloxycarbonyl-L-leucyl]-3S-4-phenyl-3-amino-2-oxybutyloxy]-5',6'-dichlorobenzotriazole] | 65000 | 115000 |
| CC(C)C[C@H](NC(=O)OCc1ccccc1)C(=O)N[C@@H](Cc1ccccc1)C(=O)COn1nnc2c(Cl)c(Cl)c(Cl)c(Cl)c21 [Example 20, 1-[N-[N-Benzyloxycarbonyl-L-leucyl]-3S-4-phenyl-3-amino-2-oxybutyloxy]-4',5'6',7'-tetrachlorobenzotriazole] | 1300 | – |
| CC(C)C[C@H](NC(=O)OCc1ccccc1)C(=O)N[C@@H](Cc1ccccc1)C(=O)COn1nnc2c(Cl)cc(Cl)c(Cl)c21 [Example 21, 1-[N-[N-Benzyloxycarbonyl-L-leucyl]-3S-4-phenyl-3-amino-2-oxybutyloxy]-4',6',7'-trichlorobenzotriazole] | 1800 | 10000 |
| CC(C)C[C@H](NC(=O)OCc1ccccc1)C(=O)N[C@@H](Cc1ccccc1)C(=O)COn1nnc2c(Cl)c(Cl)ccc21 [Example 23, 1-[N-[N-Benzyloxycarbonyl-L-leucyl]-3S-4-phenyl-3-amino-2-oxybutyloxy]-4',5'-dichlorobenzotriazole] | 64000 | – |
| CCc1cc2c(cc1Cl)nnn2OCC(=O)[C@H](Cc1ccccc1)NC(=O)[C@H](CC(C)C)NC(=O)OCc1ccccc1 [Example 24, 1-[N-[N-Benzyloxycarbonyl-L-leucyl]-3S-4-phenyl-3-amino-2-oxybutyloxy]-5'-chloro-6'-ethylbenzotriazole] | 84000 | 30000 |

Results, then the molecule that gave them:

| kinact/KI (Calpain I) [M⁻¹ s⁻¹] | kinact/KI (Cathepsin B) [M⁻¹ s⁻¹] | SMILES |
| --- | --- | --- |
| 112000 | – | Cc1ccc2nnn(OCC(=O)[C@H](Cc3ccccc3)NC(=O)[C@H](CC(C)C)NC(=O)OCc3ccccc3)c2c1 [Example 26, 1-[N-[N-Benzyloxycarbonyl-L-leucyl]-3S-4-phenyl-3-amino-2-oxobutyloxy]-6'-methylbenzotriazole] |
| 230000 | – | Cc1ccc2c(c1)nnn2OCC(=O)[C@H](Cc1ccccc1)NC(=O)[C@H](CC(C)C)NC(=O)OCc1ccccc1 [Example 27, 1-[N-[N-Benzyloxycarbonyl-L-leucyl]-3S-4-phenyl-3-amino-2-oxobutyloxy]-5'-methylbenzotriazole] |
| 171000 | – | COc1cc2nnn(OCC(=O)[C@H](Cc3ccccc3)NC(=O)[C@H](CC(C)C)NC(=O)OCc3ccccc3)c(=O)c2cc1OC [Example 29, 1-[N-[N-Benzyloxycarbonyl-L-leucyl]-3S-4-phenyl-3-amino-2-oxobutyloxy]-3-(6',7'-dimethoxy)benzotriazin-4-one] |
| 180000 | – | CC(C)C[C@H](NC(=O)OCc1ccccc1)C(=O)N[C@@H](Cc1ccccc1)C(=O)COn1nnc2ccc(Cl)cc2c1=O [Example 30, 1-[N-[N-Benzyloxycarbonyl-L-leucyl]-3S-4-phenyl-3-amino-2-oxobutyloxy]-3-(6'-chloro)benzotriazin-4-one] |
| 46000 | – | CC(C)C[C@H](NC(=O)[C@H](CC(C)C)NC(=O)OCc1ccccc1)C(=O)COn1nnc2ccccc2c1=O [Example 31, 1-[N-[N-Benzyloxycarbonyl-L-leucyl]-3S-5-methyl-3-amino-2-oxohexyloxy]-3-benzotriazin-4-one] |
| 3000 | – | CC[C@H](C(=O)C[C@@H](CC(C)C)C(=O)N[C@@H](Cc1ccccc1)C(=O)COn1nnc2ccccc21)c1ccccc1 [Example 46, 1-[N-[2R-(2-methylpropyl)-1,4-dioxo-5S-phenylheptan-1-yl]-3S-3-amino-2-oxo-4-phenylbutyloxy]benzotriazole] |
